Laboratory results published in ChEMBL document CHEMBL1143203, “Targeting the inverted CCAAT Box-2 of the topoisomerase IIalpha gene: DNA sequence selective recognition by a polyamide-intercalator as a staggered dimer” (Bioorg Med Chem, 2008).
Activity calls are given as the source filed them. The rule behind the calls is not given here.

Legend:
Nucleic Acid [1] = experiment: Binding affinity to topoisomerase 2alpha promoter AAATTT 10 bp DNA by thermal denaturation assay; type: nucleic-acid assay
Nucleic Acid [2] = experiment: Binding affinity to topoisomerase 2-alpha promoter AAGCTA DNA by thermal denaturation assay; type: nucleic-acid assay
Nucleic Acid [3] = experiment: Binding affinity to topoisomerase 2alpha promoter AAATTT 11 bp DNA by thermal denaturation assay; type: nucleic-acid assay
[4] = Inhibition of NF-Y binding to 5'-[32P]ICB2-containing DNA fragment at 50 uM after 2 hrs by electrophoretic mobility shift assay
[5] = Binding affinity to biotinylated AAGCTT DNA
Nucleic Acid [6] = experiment: Binding affinity to topoisomerase 2alpha promoter ATGCAT DNA by thermal denaturation assay; type: nucleic-acid assay
[7] = Binding affinity to biotinylated ACGCGT DNA
[8] = Binding affinity to biotinylated AAATTT DNA
NIH3T3 = experiment: Induction of topoisomerase 2-alpha expression in mouse NIH3T3 cells at 10 uM after 24 hrs by Western blotting assay; type: functional, cell-based
Nucleic Acid [9] = experiment: Binding affinity to topoisomerase 2-alpha promoter AAATTT 12 bp DNA by thermal denaturation assay; type: nucleic-acid assay

| ΔTm (Nucleic Acid [1]) | ΔTm (Nucleic Acid [2]) | ΔTm (Nucleic Acid [3]) | Activity [4] | K [5] | ΔTm (Nucleic Acid [6]) | K [7] | K [8] | ΔTm (Nucleic Acid [9]) | SMILES | Activity (NIH3T3) |
| --- | --- | --- | --- | --- | --- | --- | --- | --- | --- | --- |
| 10 °C | > 22 °C | – | – | – | – | – | – | – | CN(CCCN)CCCNC(=O)c1cc(NC(=O)c2cc(NC(=O)c3nc(NC=O)cn3C)cn2C)cn1C | – |
| – | 5.1 °C | 3.5 °C | inactive | 5.5 10^6/M | 11 °C | 9.5 10^4/M | 4.7 10^5/M | – | CN(C)CCCNC(=O)c1cc(NC(=O)c2cc(NC(=O)c3nc(NC=O)cn3C)cn2C)cn1C | – |
| – | 8.4 °C | – | Active | 5.6 10^6/M | – | 2.8 10^5/M | 1.5 10^5/M | 3.8 °C | CN(CCCNC(=O)CCCCCCCN1C(=O)c2cccc3cccc(c23)C1=O)CCCNC(=O)c1cc(NC(=O)c2cc(NC(=O)c3nc(NC=O)cn3C)cn2C)cn1C | Active |
